Results published in patent US4107309A, “Substituted imidazo[1,2-d]-as-triazines” (American Cyanamid Company, priority 1977, dated 1978).

Assays:
[1] = system: mouse skin cyclic-AMP phosphodiesterase; assay: mouse skin phosphodiesterase (PDE) inhibition test; format: biochemical; conditions: for Mouse Skin Phosphodiesterase: test compound 10 ug./ml, active if it inhibits more than theophylline (to 50% of control at 1 mM or to 80% of control at 0.05 mM); for phosphodiesterase activity, % of control: reference level used as activity criterion
Excerpt: The novel compounds of the present invention are active in inhibiting the enzyme cyclic-AMP phosphodiesterase which is responsible for the metabolism of cyclic adenosine monophosphate which is usually simply referred to as cyclic AMP. As such, they are useful in the treatment of psoriasis, a disease in which the epidermal cyclic AMP levels are reported to be decreased. Also as such, they are useful in the treatment of asthma, since elevated levels of cyclic AMP in most cells are reported to inhibit the release of histamine and other mediators and since elevated levels of cyclic AMP in bronchial smooth muscle are reported to cause bronchodilation. See Ann. Reports in Medicinal Chem., Vol. 10, 197 (1975).
The inhibition of phosphodiesterase is determined by the mouse skin phosphodiesterase (PDE) inhibition test as follows:
Hairless mice (Jackson Laboratories), 3-4 months old are killed by cervical dislocation and their skins removed. Epidermal slices are taken at a thickness of 0.2 mm. The slices are weighed and homogenized at 100 mg./ml. in ice-cold tris-HCl buffer (0.04M, pH 8, containing 0.005M MgCl2). Homogenates are centrifuged at 17,000 × gravity for 30 minutes. The supernatants are divided into aliquots which are stored at -20° C. Dilutions of the PDE are made with tris-HCl buffer just prior to use.
AG1-X2®, 200-400 mesh (a polystyrene anionic exchange resin 8% cross linked from Bio-Rad Lab.) is washed with 0.5N HCl, 0.5N NaOH, 0.5N HCl and repeatedly with double distilled water to pH 5. The resin is allowed to settle and 2 volumes of water are added to one volume of settled resin.
^3 H-Cyclic AMP (21 c/m mole, Schwarz-Mann Inc.) is purified by addition of 0.1 to 0.2 ml. of stock (in 50% ethanol) to 5 ml. of anion exchange resin and 0.4 ml. of tris-HCl buffer. The mixture is vortexed, centrifuged at 1200 × gravity for 5 minutes and the supernatant is discarded. The resin is washed in the same manner eight more times with two volumes of tris-HCl buffer. Resin bound ^3 H-cyclic AMP is eluted by two successive washings with 4 ml. of 0.025N HCl (resin pH = 2.0). After centrifugation, the pooled acid washes containing ^3 H-cyclic AMP are aliquoted and lyophilized. The material is stored dry at -20° C. and reconstituted with tris-HCl buffer just prior to use with a volume sufficient to give approximately 200,000 CPM/0.1 ml.
PDE activity is measured by the method of W. J. Thompson and N. N. Appleman, Biochemistry 10, 311 (1971). Assays are conducted in 12 × 75 mm. polypropylene test tubes. The reaction mixture consists of ^3 H-cyclic AMP (200,000 CPM), unlabeled cyclic AMP, PDE (100 ug. protein) and test compounds which are prepared by dissolving the compounds in methanol at a concentration of 10 mg./ml. and then dilution of tris-HCl buffer. Final concentration of the test compounds in the incubation mixture is 10 ug./ml. The total volume of the incubation mixture is increased to 0.4 ml. with tris-HCl buffer containing 3.75 millimoles of 2-mercaptoethanol. The enzyme is incubated for 10 minutes at room temperature in the presence of the test compounds or buffer prior to the addition of the mixture of ^3 H-cyclic AMP and unlabeled cyclic AMP. Reactions are run at 30° C. for 15 minutes and then terminated by immersing in acetone-dry ice until frozen, followed by boiling for 3 minutes. […]

[2] = system: mouse passive cutaneous anaphylaxis (IgE and IgG lesions); assay: mouse passive cutaneous anaphylaxis (PCA) test; format: in vivo; conditions: 50 mg./kg intraperitoneally at -1 hour; active if IgE or IgG lesion area significantly smaller than control
Protocol: Anti-asthma activity was determined by the mouse passive cutaneous anaphylaxis (PCA) test as follows.
Female mice (Charles River Breeding Labs.), weighing 20-22 gm. are inoculated intraperitoneally at approximately three weeks of age with 0.5 ml. of Timothy pollen antigen in complete Freund's adjuvant. The sensitizing antigen is prepared by suspending 60 mg. of Timothy antigen (Phleum pratense) in 6 ml. of Freund's Complete Adjuvant (Difco Labs.). Approximately 3-5 weeks after inoculation, ascitic fluid is removed from responding mice and tested for IgE and IgG type antibody by mouse PCA as follows:
Samples of ascitic fluid are diluted 1:10 and 50 μl are injected intradermally into five mice. The mice are challenged intravenously with antigen and Evans blue dye 48 hours later. Fifteen minutes after challenge, the dorsal skin is removed and examined for blue spots. […]
At -50 hour (relative to antigen challenge at 0 hour) 50 μl of IgE is injected intradermally on the left side of a 25 gm. female mouse, posterior to the axilla at the level of the diaphragm. […] Challenge and reading are performed in serial order so that reading of the assay is essentially blind. […] The largest and smallest diameters of the lesion and a qualitative estimate of intensity of color are recorded. […] IgE and IgG lesions are analyzed independently. […]

SMILES: CN1CCN(c2nncc3nccn23)CC1 [5-(4-Methyl-1-piperazinyl)-imidazo[1,2-d]-as-triazine]
- Mouse Skin Phosphodiesterase [1]: Active
- MOUSE PCA TEST [2]: Accept

SMILES: c1coc(CNc2nncc3nccn23)c1 [5-(Furfurylamino)-imidazo[1,2-d]-as-triazine]
- Mouse Skin Phosphodiesterase [1]: Active

SMILES: CSc1nncc2nccn12 [5-(Methylthio)-imidazo[1,2-d]-as-triazine]
- Mouse Skin Phosphodiesterase [1]: Active

SMILES: Cn1c(=O)c2[nH]cnc2n(C)c1=O [theophylline, reference compound]
- phosphodiesterase activity, % of control ([1]; 0.05 mM concentration): 80 % of control
- phosphodiesterase activity, % of control ([1]; 1 mM concentration): 50 % of control
